These are literature values, as cited in patent US10744098B2, “Spray-dried solid-in-oil-in-water dispersions for inhalation of active pharmaceutical ingredients” (Novartis AG, priority 2014, dated 2020).

The target in the data set is β2-adrenoceptor (Homo sapiens, UniProt P07550).
β2-adrenoceptor, sequence (P07550 whole entry, species assumed): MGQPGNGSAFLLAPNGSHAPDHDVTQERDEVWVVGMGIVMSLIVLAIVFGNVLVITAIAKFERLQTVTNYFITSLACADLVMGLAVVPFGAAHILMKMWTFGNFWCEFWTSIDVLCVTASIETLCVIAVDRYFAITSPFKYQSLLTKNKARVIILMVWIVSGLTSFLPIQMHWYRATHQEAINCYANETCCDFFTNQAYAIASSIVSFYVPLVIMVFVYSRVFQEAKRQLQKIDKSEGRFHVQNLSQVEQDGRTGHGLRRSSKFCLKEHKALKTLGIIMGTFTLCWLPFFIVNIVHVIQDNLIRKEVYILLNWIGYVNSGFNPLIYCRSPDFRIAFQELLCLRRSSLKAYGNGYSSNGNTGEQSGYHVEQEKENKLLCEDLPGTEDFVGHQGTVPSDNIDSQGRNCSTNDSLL

For the molecule `CCc1cc2c(cc1CC)CC(NC[C@H](O)c1ccc(O)c3[nH]c(=O)ccc13)C2` [indacaterol, (R)-5-[2-(5,6-diethyl-indan-2-ylamino)-1-hydroxyethyl]-8-hydroxy-1H-quinolin-2-one], the duration of action entry is on record as “over 24 hours” and the onset of action result is recorded as “about 10 minutes”.
